The text below walks through data of patent US4145442A, “Phenoxy-hydroxypropylamines, their preparation, and method and pharmaceutical preparations for treating cardiovascular diseases” (priority 1972, dated 1979).

Each structure is given as a SMILES string. Where two headings read alike, the source gives them in different places.

What all share (format): in vivo
The target in experiment [1] is T1, β-receptors of the heart (Felis catus, UniProt Q9TST6).
T1 construct: from tissue; host or cells: heart of the anesthetized, reserpine-pretreated, vagotomized cat (in vivo)
In words: Intrinsic activity on heart rate in reserpinized cat. Conditions: iv, anesthetized, vagotomized, i.v., read-out: Intrinsic activity % of maximal isoprenaline heart rate. As for the experimental part: (§1) Compounds prepared according to the examples were evaluated for intrinsic activity and blocking effect on heart rate and peripheral vasodilator response to isoprenaline in the cat. Alprenolol was used as a reference source.
(§2) Cats weighing between 1.8 and 2.8 kg were anesthetized with 39 mg/kg pentobarbital sodium, intraperitoneally. The cat had been pre-treated with reserpine, 5 mg/kg intramuscular, about 18 hours before the experiment. Bilateral vagotomy was performed before the start of the experiment.
(§3) The heart rate was recorded on an Offner cardiotachometer triggered by the EKG-complex. Mean arterial blood pressure was recorded from a carotid artery. The peripheral resistance was measured in one of the legs of the cat in the following way: The femoral artery was opened in the inguinal region and the leg was perfused by blood delivered through a sigma motor pump at constant rate. The flow resistance (the pressure) was recorded via pressure transducer connected to the catheter distally to the pump. The paw was excluded from the circulation by a tight ligature. Intravenously injected isoprenaline increased the heart rate and reduced the perfusion pressure. An isoprenaline dose giving 70-80% of the maximal chronotropic response was determined. This dose (usually 0.1 μg/kg) was then repeated with 20-minute intervals. Ten minutes before each isoprenaline injection, the tested substances were administered intravenously for two minutes, starting with a dose of 0.01 mg/kg and increasing each subsequent dose fourfold. The intrinsic effects of the test substances were determined. The dose producing 50% blockade of the isoprenaline responses was evaluated from the plotted log dose percent blockade diagrams.

For experiment [2], the target named is T1, β-receptors of the heart. Nature of the experiment: β-blockade of isoprenaline heart rate response in reserpinized cat. Conditions: iv, read-out: β-blockade heart rate ED50. How it is done:
as §1, §2, §3

Experiment [3] concerns the target T2, β2-receptors of the smooth muscles (Felis catus, UniProt Q9TST5).
T2 construct: from tissue; host or cells: vascular bed of the blood-perfused leg of the anesthetized cat, paw excluded (in vivo)
In words: β-blockade of isoprenaline peripheral vasodilator response (peripheral vascular resistance) in reserpinized cat. The following applies: iv, 50% blockade of isoprenaline (usually 0.1 μg/kg) response. As for the experimental part: as §1, §2, §3

Where [4] appears, read: reserpinized cat, i.v., 50% blockade of isoprenaline (usually 0.1 μg/kg) response.

T1 sequence (Q9TST6 whole entry): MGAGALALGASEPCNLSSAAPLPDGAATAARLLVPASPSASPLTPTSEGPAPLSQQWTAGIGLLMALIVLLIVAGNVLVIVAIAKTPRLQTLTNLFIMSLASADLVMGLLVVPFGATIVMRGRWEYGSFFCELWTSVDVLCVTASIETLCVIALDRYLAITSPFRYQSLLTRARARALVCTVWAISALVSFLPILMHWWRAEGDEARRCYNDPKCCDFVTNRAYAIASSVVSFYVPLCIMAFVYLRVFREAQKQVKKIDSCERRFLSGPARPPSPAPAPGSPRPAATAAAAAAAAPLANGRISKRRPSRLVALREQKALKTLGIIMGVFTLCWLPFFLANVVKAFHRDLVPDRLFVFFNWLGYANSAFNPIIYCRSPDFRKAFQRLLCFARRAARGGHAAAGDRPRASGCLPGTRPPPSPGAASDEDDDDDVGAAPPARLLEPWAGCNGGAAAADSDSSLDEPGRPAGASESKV
T2 sequence (Q9TST5 whole entry, the tested form may be a part): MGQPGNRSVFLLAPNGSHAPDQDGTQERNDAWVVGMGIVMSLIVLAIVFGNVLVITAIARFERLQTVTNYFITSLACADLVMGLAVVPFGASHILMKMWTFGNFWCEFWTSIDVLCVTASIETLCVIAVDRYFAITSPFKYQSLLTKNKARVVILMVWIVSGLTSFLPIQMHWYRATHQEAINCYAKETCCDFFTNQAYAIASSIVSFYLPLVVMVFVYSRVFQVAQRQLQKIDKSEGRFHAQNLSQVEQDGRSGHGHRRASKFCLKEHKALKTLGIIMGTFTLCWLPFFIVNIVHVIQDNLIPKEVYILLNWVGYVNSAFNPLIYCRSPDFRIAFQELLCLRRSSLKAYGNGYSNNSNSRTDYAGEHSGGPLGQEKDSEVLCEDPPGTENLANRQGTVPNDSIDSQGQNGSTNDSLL

The term ED50 denotes the midpoint of the dose-response relation. As for `COCCc1ccc(OCC(O)CNC(C)C)c(Br)c1` (stereo not drawn) [Example 1, 1-isopropylamino-3-[2'-bromo-4'-(β-methoxyethyl)-phenoxy]-propanol-2], on β-receptors of the heart [1], the Emax came to 0%. Moreover, the figures for the ED50 (at β-receptors of the heart [2] (setting [4]); in experiment [3]) were 0.03 mg/kg and 1 mg/kg, respectively.

Turning to `COCCc1ccc(OCC(O)CNC(C)(C)C)c(Cl)c1` (stereo not drawn) [Example 3], the Emax on β-receptors of the heart [1] is 0%. Also, the figures for the median effective dose (ED50) (on β-receptors of the heart [2] (setting [4]); in experiment [3]) were 0.03 mg/kg and 1 mg/kg, respectively.

Consider `COCCc1ccc(OCC(O)CNC(C)C)c(COC)c1` (stereo not drawn) [Example 4, 1-isopropylamino-3-[2'-methoxymethyl-4'-(2-methoxyethyl)phenoxy]-propanol-2], for which, on β-receptors of the heart [1], the Emax is 5%. Moreover, the median effective dose (ED50) on β-receptors of the heart [2] (setting [4]) came out at 0.2 mg/kg; in experiment [3] it was 5 mg/kg.

Regarding `CSCCc1ccc(OCC(O)CNC(C)C)c(F)c1` (stereo not drawn) [Example 11, 1-isopropylamino-3-[2'-fluoro-4'-(2-methylmercaptoethyl)phenoxy]-propanol-2xHCl], the Emax at β-receptors of the heart [1] is 0%. The ED50 on β-receptors of the heart [2] (setting [4]) was 0.2 mg/kg; in experiment [3], 1 mg/kg.

With `C=CCc1cc(CCOC)ccc1OCC(O)CNC(C)C` (stereo not drawn) [Example 8, 1-isopropylamino-3-[2'-allyl-4'-(2-methoxyethyl)-phenoxyl]propanol-2], at β-receptors of the heart [1], the Emax was 0%. Further, the 50% effective dose (ED50) came out at 0.1 mg/kg on β-receptors of the heart [2] (setting [4]) and 0.8 mg/kg in experiment [3].

On to `COCCCc1ccc(OCC(O)CNC(C)C)c(Br)c1` (stereo not drawn) [Example 6, 1-isopropylamino-3-[2'-bromo-4'-(3-methoxypropyl)phenoxy]-propanol-2], for which the Emax on β-receptors of the heart [1] was 0%. The 50% effective dose (ED50) was found to be 0.4 mg/kg on β-receptors of the heart [2] (cat) and 1.5 mg/kg in experiment [3].

For `C=CCc1cc(CCCOC)ccc1OCC(O)CNC(C)C` (stereo not drawn) [Example 10, 1-isopropylamino-3-[2'-allyl-4'-(3-methoxy-n-propyl)phenoxy]-propanol-2], the Emax at β-receptors of the heart [1] is 0%. In addition, the results for the ED50 (on β-receptors of the heart [2] (setting [4]); in experiment [3]) were 0.3 mg/kg and 1 mg/kg, respectively.

Take `CCCc1cc(CCOC)ccc1OCC(O)CNC(C)C` (stereo not drawn) [Example 9, 1-isopropylamino-3-[2'-propyl-4'-(2-methoxyethyl)phenoxy]-propanol-2]: the Emax on β-receptors of the heart [1] came out at 0%. The results for the 50% effective dose (ED50) (on β-receptors of the heart [2] (setting [4]); in experiment [3]) were 0.1 mg/kg and 0.5 mg/kg, respectively.

In the case of `COCCc1ccc(OCC(O)CNC(C)C)c(F)c1` (stereo not drawn) [Example 13, 1-isopropylamino-3-[2'-fluoro-4'-(2-methoxyethyl)phenoxy]-propanol-2xHCl], on β-receptors of the heart [1], the Emax was found to be 0%. Moreover, the results for the ED50 (on β-receptors of the heart [2] (setting [4]); in experiment [3]) were 0.05 mg/kg and 2.7 mg/kg, respectively.

Consider `COCCc1ccc(OCC(O)CNC(C)C)c(Cl)c1` (stereo not drawn) [Example 2, 1-isopropylamino-3-[2'-chloro-4'-(2-methoxyethyl)phenoxy]-propanol-2], for which, on β-receptors of the heart [1], the Emax amounted to 0%. Also, the ED50 was determined as 0.1 mg/kg on β-receptors of the heart [2] (setting [4]) and 3 mg/kg in experiment [3].

As to `COCc1ccc(OCC(O)CNC(C)C)c(OC)c1` (stereo not drawn) [Example 7, 1-isopropyalmino-3-[2'-methoxymethylphenoxy]-propanol-2], the Emax on β-receptors of the heart [1] came out at 1%. For the same compound, the results for the ED50 (on β-receptors of the heart [2] (setting [4]); in experiment [3]) were 0.6 mg/kg and 3 mg/kg, respectively.

For `COCCCc1ccc(OCC(O)CNC(C)C)c(Cl)c1` (stereo not drawn) [Example 5, 1-isopropylamino-3-[2'-chloro-4'-(3-methoxy-n-propyl)phenoxy]-propanol-2], on β-receptors of the heart [1], the Emax was 0%. The ED50 at β-receptors of the heart [2] (setting [4]) was determined as 0.3 mg/kg; in experiment [3], 2 mg/kg.

On to `COCCCc1ccc(OCC(O)CNC(C)C)c(OC)c1` (stereo not drawn) [Example 12, 1-isopropylamino-3-[2'-methoxy-4'-(3-methoxy-n-propyl)phenoxy]-propanol-2xHCl], for which the Emax on β-receptors of the heart [1] stood at 0%. Moreover, the ED50 at β-receptors of the heart [2] (cat) was determined as 0.4 mg/kg; in experiment [3], 5 mg/kg.
